{"source": "patent US20230108049A1", "about": "“ORAL FAST-DISPERSING DOSAGE FORM OF RIMEGEPANT” (BIOHAVEN PHARMACEUTICAL HOLDING COMPANY LTD., priority 2020, published 2023)", "key": {"OATP1B1 [1]": {"molecular_target": "T1, OATP1B1 (Homo sapiens, UniProt Q9Y6L6)", "T1 sequence (Q9Y6L6 whole entry)": "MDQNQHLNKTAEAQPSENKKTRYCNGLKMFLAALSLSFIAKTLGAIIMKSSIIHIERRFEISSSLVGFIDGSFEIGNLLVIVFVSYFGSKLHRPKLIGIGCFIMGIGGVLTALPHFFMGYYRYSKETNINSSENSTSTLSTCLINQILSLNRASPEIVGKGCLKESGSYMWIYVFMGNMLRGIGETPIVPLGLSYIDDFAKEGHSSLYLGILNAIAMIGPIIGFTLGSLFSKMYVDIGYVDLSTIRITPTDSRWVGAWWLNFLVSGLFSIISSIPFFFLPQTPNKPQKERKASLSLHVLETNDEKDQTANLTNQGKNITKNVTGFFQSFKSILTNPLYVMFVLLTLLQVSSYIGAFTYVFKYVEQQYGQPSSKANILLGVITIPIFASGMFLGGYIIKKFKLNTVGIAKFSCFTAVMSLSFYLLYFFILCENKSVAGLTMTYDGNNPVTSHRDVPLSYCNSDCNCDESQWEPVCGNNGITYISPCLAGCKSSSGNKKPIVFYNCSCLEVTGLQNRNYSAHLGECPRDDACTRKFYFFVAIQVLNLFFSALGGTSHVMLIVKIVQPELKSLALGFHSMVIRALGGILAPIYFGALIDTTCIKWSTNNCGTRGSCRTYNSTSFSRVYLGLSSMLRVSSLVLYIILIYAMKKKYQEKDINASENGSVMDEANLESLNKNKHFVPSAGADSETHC", "assay": "In vitro transporter inhibition", "assay_type": "in vitro ADME"}, "BCRP": {"molecular_target": "BCRP (Homo sapiens, UniProt Q9UNQ0)", "sequence (Q9UNQ0 whole entry)": "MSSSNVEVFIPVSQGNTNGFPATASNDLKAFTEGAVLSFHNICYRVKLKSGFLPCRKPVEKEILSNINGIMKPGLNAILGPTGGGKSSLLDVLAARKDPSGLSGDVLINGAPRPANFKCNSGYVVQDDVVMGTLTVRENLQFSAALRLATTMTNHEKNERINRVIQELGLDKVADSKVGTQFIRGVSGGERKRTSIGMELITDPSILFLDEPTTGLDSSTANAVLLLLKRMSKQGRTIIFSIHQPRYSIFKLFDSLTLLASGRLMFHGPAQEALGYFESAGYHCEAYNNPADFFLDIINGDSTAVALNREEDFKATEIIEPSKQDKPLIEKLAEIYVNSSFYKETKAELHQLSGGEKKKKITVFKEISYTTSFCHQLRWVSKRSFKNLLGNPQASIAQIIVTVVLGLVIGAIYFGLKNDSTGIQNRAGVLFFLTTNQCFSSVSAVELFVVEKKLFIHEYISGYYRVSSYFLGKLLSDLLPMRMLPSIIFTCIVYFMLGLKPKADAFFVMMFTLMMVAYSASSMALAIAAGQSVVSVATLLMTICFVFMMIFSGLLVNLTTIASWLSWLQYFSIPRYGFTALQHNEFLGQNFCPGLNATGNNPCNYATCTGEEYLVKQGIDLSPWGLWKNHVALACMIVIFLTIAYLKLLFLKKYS", "assay": "In vitro transporter inhibition", "assay_type": "in vitro ADME", "conditions": "at clinically relevant concentrations"}, "OAT1": {"molecular_target": "OAT1 (Homo sapiens, UniProt Q4U2R8)", "assay": "In vitro transporter inhibition", "assay_type": "in vitro ADME", "conditions": "at clinically relevant concentrations", "from_the_text": "(§1) Rimegepant is an inhibitor of OATP1B3, OCT2, and MATE1. No clinical drug interactions are expected for NURTEC ODT with these transporters at clinically relevant concentrations."}, "OCT2": {"molecular_target": "OCT2 (Homo sapiens, UniProt O15244)", "sequence (O15244 whole entry)": "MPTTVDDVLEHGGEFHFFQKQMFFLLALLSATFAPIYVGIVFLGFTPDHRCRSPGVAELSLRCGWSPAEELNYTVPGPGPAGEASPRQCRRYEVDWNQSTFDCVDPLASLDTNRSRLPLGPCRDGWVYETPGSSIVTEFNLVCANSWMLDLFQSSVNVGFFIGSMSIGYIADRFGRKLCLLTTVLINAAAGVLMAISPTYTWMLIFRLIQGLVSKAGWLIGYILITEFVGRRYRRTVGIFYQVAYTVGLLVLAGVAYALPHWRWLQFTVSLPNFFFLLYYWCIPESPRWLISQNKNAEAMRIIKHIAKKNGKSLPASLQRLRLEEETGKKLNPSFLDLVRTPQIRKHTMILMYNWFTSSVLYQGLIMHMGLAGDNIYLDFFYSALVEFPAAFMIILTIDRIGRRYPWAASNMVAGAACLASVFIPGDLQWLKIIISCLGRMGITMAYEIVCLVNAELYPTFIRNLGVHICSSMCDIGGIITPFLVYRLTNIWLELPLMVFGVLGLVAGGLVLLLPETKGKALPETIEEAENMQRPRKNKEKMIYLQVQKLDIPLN", "assay": "In vitro transporter inhibition", "assay_type": "in vitro ADME", "from_the_text": "as §1"}, "OATP1B3 [2]": {"molecular_target": "T2, OATP1B3 (Homo sapiens, UniProt Q9NPD5)", "T2 sequence (Q9NPD5 whole entry)": "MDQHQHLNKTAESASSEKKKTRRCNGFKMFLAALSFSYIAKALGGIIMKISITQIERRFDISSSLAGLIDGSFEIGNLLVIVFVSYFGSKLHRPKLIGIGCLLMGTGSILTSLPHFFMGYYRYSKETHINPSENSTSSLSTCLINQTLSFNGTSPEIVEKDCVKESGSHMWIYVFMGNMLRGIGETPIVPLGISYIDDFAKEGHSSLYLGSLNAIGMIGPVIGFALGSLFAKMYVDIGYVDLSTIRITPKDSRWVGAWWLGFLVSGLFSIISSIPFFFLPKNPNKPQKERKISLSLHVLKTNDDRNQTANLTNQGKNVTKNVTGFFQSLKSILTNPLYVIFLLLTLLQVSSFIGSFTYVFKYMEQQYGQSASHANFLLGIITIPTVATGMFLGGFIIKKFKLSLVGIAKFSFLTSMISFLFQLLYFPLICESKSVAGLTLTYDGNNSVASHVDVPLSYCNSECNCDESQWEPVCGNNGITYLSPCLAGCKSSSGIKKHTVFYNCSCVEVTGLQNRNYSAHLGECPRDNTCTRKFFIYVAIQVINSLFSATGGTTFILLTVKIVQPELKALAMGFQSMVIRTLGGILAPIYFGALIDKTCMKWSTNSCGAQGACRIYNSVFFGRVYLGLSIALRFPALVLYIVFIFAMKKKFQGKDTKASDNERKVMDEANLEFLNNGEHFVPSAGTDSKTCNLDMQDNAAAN", "assay": "In vitro transporter inhibition", "assay_type": "in vitro ADME", "from_the_text": "as §1"}, "MATE1": {"molecular_target": "MATE1 (Homo sapiens, UniProt Q96FL8)", "sequence (Q96FL8 whole entry)": "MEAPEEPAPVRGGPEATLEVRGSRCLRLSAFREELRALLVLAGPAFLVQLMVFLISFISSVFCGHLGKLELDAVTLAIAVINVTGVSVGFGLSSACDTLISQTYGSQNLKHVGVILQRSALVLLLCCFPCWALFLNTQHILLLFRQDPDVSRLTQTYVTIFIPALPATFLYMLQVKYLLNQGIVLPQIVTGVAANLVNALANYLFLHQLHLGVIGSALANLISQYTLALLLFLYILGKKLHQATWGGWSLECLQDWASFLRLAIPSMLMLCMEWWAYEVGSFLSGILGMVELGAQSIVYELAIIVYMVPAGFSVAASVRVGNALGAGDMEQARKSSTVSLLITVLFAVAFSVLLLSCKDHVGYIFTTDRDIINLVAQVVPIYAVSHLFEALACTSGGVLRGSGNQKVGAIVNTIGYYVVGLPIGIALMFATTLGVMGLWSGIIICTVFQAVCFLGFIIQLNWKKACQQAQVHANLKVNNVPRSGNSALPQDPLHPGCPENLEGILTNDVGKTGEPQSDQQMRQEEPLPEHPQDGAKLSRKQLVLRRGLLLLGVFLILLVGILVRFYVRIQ", "assay": "In vitro transporter inhibition", "assay_type": "in vitro ADME", "from_the_text": "as §1"}, "OAT3": {"molecular_target": "OAT3 (Homo sapiens, UniProt Q8TCC7)", "sequence (Q8TCC7 whole entry)": "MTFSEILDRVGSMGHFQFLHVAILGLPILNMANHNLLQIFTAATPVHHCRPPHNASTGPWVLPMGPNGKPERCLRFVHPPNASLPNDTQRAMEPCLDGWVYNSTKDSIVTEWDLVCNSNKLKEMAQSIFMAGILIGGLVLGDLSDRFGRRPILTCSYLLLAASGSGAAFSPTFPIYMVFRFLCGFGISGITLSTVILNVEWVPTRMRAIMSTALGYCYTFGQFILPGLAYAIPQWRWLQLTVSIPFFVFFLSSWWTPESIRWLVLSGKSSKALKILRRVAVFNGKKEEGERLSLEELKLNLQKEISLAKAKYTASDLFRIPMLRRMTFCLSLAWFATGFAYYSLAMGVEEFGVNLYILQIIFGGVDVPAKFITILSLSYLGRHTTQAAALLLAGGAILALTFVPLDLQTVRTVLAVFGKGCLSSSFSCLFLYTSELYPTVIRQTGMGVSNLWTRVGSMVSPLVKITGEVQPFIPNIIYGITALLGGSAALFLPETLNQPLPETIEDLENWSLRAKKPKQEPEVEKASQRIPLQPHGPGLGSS", "assay": "In vitro transporter inhibition", "assay_type": "in vitro ADME", "from_the_text": "as §1"}, "[3]": {"assay": "Dedicated clinical study, pharmacokinetics in hepatic impairment", "assay_type": "in vivo, human", "experimental": "In a dedicated clinical study comparing the pharmacokinetics of rimegepant in subjects with mild, moderate, and severe hepatic impairment to that with normal subjects (healthy matched control), the exposure of rimegepant (Cmax and AUC) following a single 75 mg dose was approximately 2-fold higher in subjects with severe impairment (Child-Pugh class C)."}, "CYP3A4 [4]": {"molecular_target": "T3, CYP3A4 (Homo sapiens, UniProt P08684)", "T3 sequence (P08684 whole entry)": "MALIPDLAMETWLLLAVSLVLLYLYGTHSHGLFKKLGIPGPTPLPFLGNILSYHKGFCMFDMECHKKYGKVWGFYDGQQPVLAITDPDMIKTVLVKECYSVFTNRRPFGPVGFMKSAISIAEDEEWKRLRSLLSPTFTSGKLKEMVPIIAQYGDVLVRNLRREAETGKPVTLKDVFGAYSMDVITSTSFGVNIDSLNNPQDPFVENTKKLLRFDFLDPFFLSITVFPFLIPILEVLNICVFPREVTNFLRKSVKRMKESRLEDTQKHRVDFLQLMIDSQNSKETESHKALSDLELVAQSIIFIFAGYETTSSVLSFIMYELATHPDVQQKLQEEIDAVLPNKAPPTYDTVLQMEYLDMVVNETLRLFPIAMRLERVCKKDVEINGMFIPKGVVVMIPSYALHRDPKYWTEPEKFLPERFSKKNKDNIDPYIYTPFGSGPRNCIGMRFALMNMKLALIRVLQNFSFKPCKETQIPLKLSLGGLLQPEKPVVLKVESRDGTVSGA", "assay": "In vitro enzyme inhibition", "assay_type": "in vitro ADME", "from_the_text": "(§2) Rimegepant is a substrate of CYP3A4 and CYP2C9 [see In Vivo Studies]."}, "UGT1A1": {"molecular_target": "UGT1A1 (Homo sapiens, UniProt P22309)", "sequence (P22309 26-533)": "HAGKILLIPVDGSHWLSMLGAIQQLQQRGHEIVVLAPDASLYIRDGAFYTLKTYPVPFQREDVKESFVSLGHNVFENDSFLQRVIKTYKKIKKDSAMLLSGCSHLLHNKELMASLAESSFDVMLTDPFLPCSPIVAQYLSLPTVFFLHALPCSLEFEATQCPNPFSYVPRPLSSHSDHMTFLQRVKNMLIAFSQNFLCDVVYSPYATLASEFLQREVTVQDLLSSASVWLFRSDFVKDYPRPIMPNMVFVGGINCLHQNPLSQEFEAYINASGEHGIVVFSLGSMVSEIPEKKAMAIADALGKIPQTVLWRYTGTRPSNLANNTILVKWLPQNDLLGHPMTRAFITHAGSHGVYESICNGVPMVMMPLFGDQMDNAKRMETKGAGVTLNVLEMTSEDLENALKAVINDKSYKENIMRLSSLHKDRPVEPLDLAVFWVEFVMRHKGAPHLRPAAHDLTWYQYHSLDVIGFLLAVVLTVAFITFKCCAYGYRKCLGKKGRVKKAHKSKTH", "assay": "In vitro enzyme inhibition", "assay_type": "in vitro ADME", "conditions": "at clinically relevant concentrations", "from_the_text": "as §2"}, "OATP1B1 [5]": {"molecular_target": "T1, OATP1B1", "assay": "In vitro transporter substrate study", "assay_type": "in vitro ADME", "from_the_text": "(§3) Considering its low renal clearance, rimegepant was not evaluated as a substrate of the OAT1, OAT3, OCT2, MATE1, or MATE2-K."}, "OATP1B3 [6]": {"molecular_target": "T2, OATP1B3", "assay": "In vitro transporter substrate study", "assay_type": "in vitro ADME", "from_the_text": "as §3"}, "Tg.rasH2 mice": {"system": "Tg.rasH2 mice", "assay": "Carcinogenesis study, oral, 26 weeks, Tg.rasH2 mice", "assay_type": "in vivo, mouse", "conditions": "oral 0, 10, 100, or 300 mg/k/day for 26 weeks"}, "pregnant rats": {"system": "pregnant rats", "assay": "Embryofetal development study, oral administration during organogenesis, rats", "assay_type": "in vivo, rat", "experimental": "Plasma exposures (AUC) at the no-effect dose (60 mg/kg/day) for adverse effects on embryofetal development were approximately 45 times that in humans at the maximum recommended human dose (MRHD) of 75 mg/day."}, "CYP3A4 [7]": {"molecular_target": "T3, CYP3A4", "assay": "Expected interactions with moderate or weak CYP3A4 inhibitors and inducers", "assay_type": "in vivo", "set-up": "endogenous in cells; host or cells: in vivo, endogenous enzyme of the study subjects", "experimental": "The concomitant administration of rimegepant with a moderate inhibitor of CYP3A4 may increase rimegepant exposures (AUC) by less than 2-fold [see Drug Interactions].\nNo dedicated drug interaction study was conducted to assess the effect of concomitant administration of a moderate or weak inducer of CYP3A4 on the pharmacokinetics of rimegepant."}, "CYP2C9": {"system": "CYP2C9", "assay": "Pharmacogenomics: pharmacokinetics by CYP2C9 genotype", "assay_type": "in vivo, human", "conditions": "CYP2C9 intermediate metabolizers (n=43) compared to normal metabolizers (N=72)", "from_the_text": "CYP2C9 activity is reduced in individuals with genetic variants such as the CYP2C9*2 and CYP2C9*3 alleles. Rimegepant Cmax and AUC0-inf were similar in CYP2C9 intermediate metabolizers (i.e., *1/*2, *2/*2, *1/*3, n=43) as compared to normal metabolizers (i.e., *1/*1, N=72). Adequate PK data are not available from CYP2C9 poor metabolizers (i.e., *2/*3)."}, "pregnant rabbits": {"system": "pregnant rabbits", "assay": "Embryofetal development study, oral administration during organogenesis, rabbits", "assay_type": "in vivo, rabbit", "experimental": "The highest dose tested (50 mg/kg/day) was associated with plasma exposures (AUC) approximately 10 times that in humans at the MRHD."}, "CYP3A4 [8]": {"molecular_target": "T3, CYP3A4", "assay": "Dedicated drug interaction study with itraconazole (strong CYP3A4 inhibitor)", "assay_type": "in vivo", "set-up": "endogenous in cells; host or cells: in vivo, endogenous enzyme of the study subjects", "conditions": "75 mg single dose with itraconazole at steady state"}, "CYP3A4 and CYP2C9": {"system": "CYP3A4 and CYP2C9", "assay": "Dedicated drug interaction study with fluconazole (combined moderate CYP3A4 and CYP2C9 inhibitor)", "assay_type": "in vivo, human", "conditions": "75 mg single dose with fluconazole"}}, "data": [{"smiles": "N[C@@H]1c2cccnc2[C@H](OC(=O)N2CCC(n3c(=O)[nH]c4ncccc43)CC2)CC[C@H]1c1cccc(F)c1F", "note": "[rimegepant, (5S,6S,9R)-5-amino-6-(2,3-difluorophenyl)-6,7,8,9-tetrahydro-5H-cyclohepta[b]pyridin-9-yl 4-(2-oxo-2,3-dihydro-1H-imidazo[4,5-b]pyridin-1-yl)-1-piperidinecarboxylate]", "values": [{"measurement": "inhibition of OATP1B1", "setting": "OATP1B1 [1]", "value": "weak inhibitor"}, {"measurement": "inhibition of BCRP", "setting": "BCRP", "value": "not an inhibitor"}, {"measurement": "inhibition of OAT1", "setting": "OAT1", "value": "not an inhibitor"}, {"measurement": "inhibition of OCT2", "setting": "OCT2", "value": "inhibitor"}, {"measurement": "inhibition of OATP1B3", "setting": "OATP1B3 [2]", "value": "inhibitor"}, {"measurement": "inhibition of MATE1", "setting": "MATE1", "value": "inhibitor"}, {"measurement": "inhibition of OAT3", "setting": "OAT3", "value": "weak inhibitor"}, {"measurement": "difference in exposure vs normal hepatic function", "setting": "[3]; mild (Child-Pugh class A) and moderate (Child-Pugh class B) hepatic impairment", "value": "no clinically meaningful differences"}, {"measurement": "exposure (Cmax and AUC) higher than in normal subjects", "setting": "[3]; single 75 mg dose, severe hepatic impairment (Child-Pugh class C)", "value": "approximately 2 fold"}, {"measurement": "inhibition of CYP3A4", "setting": "CYP3A4 [4]", "value": "weak inhibitor of CYP3A4 with time-dependent inhibition"}, {"measurement": "inhibition of UGT1A1", "setting": "UGT1A1", "value": "not an inhibitor"}, {"measurement": "substrate of OATP1B1", "setting": "OATP1B1 [5]", "value": "not a substrate"}, {"measurement": "substrate of OATP1B3", "setting": "OATP1B3 [6]", "value": "not a substrate"}, {"measurement": "drug-induced tumors", "setting": "Tg.rasH2 mice", "value": "no evidence of drug-induced tumors"}, {"measurement": "plasma exposure (AUC) relative to humans at the MRHD of 75 mg/day", "setting": "pregnant rats; at the no-effect dose (60 mg/kg/day)", "value": "approximately 45 times"}, {"measurement": "effects on embryofetal development", "setting": "pregnant rats; highest dose tested (300 mg/kg/day), oral, associated with maternal toxicity", "value": "decreased fetal body weight and an increased incidence of fetal variations"}, {"measurement": "no-effect dose for adverse effects on embryofetal development", "setting": "pregnant rats; oral, pregnant rats", "value": 60, "unit": "mg/kg/day"}, {"measurement": "increase of rimegepant exposures (AUC)", "setting": "CYP3A4 [7]; with a moderate inhibitor of CYP3A4, stated as 'may increase'", "value": "less than 2 fold"}, {"measurement": "impact on rimegepant exposures", "setting": "CYP3A4 [7]; with a weak inhibitor of CYP3A4, no dedicated study conducted", "value": "not expected to have a clinically significant impact"}, {"measurement": "effect on rimegepant exposure", "setting": "CYP3A4 [7]; with moderate inducers of CYP3A4, no dedicated study conducted", "value": "significant reduction in rimegepant exposure"}, {"measurement": "Cmax and AUC0-inf", "setting": "CYP2C9", "value": "similar"}, {"measurement": "effects on embryofetal development", "setting": "pregnant rabbits; 0, 10, 25, or 50 mg/kg/day oral", "value": "no adverse effects on embryofetal development"}, {"measurement": "plasma exposure (AUC) relative to humans at the MRHD", "setting": "pregnant rabbits; highest dose tested (50 mg/kg/day)", "value": "approximately 10 times"}, {"measurement": "increase of rimegepant AUC", "setting": "CYP3A4 [8]", "value": 4, "unit": "fold"}, {"measurement": "increase of rimegepant Cmax", "setting": "CYP3A4 [8]", "value": "~1.5", "unit": "fold"}, {"measurement": "effect on rimegepant Cmax", "setting": "CYP3A4 and CYP2C9", "value": "no relevant effect"}, {"measurement": "increase of rimegepant AUC", "setting": "CYP3A4 and CYP2C9", "value": 1.8, "unit": "fold"}]}]}
